The nature of series [1]: Terminal elimination rate constant in cancer patient with severe renal failure administered as infusion after 0.25 to 1.5 hrs by RP-HPLC analysis. The class given is ADME, organism-based. Set-up: dosed compound name Irinotecan. Particulars: human, in vivo, iv; read-out: k_elim (converted).
The nature of series [2]: Terminal elimination rate constant in cancer patient normal renal function administered as infusion after 0.25 to 1.5 hrs by RP-HPLC analysis. The class given is ADME, organism-based. Particulars: human, in vivo, iv; read-out: k_elim (converted). Set-up: dosed compound name Irinotecan.

The values below come from ChEMBL document CHEMBL3525988, “Delayed elimination of SN-38 in cancer patients with severe renal failure” (Drug Metab Dispos, 2011).

`CCc1c2c(nc3ccc(O[C@@H]4O[C@H](C(=O)O)[C@@H](O)[C@H](O)[C@H]4O)cc13)-c1cc3c(c(=O)n1C2)COC(=O)[C@]3(O)CC`: the values for the k el in series [1] and in series [2] were 8.61e-06 s⁻¹ and 1.7e-05 s⁻¹, respectively.
The corresponding values for `CCc1c2c(nc3ccc(O)cc13)-c1cc3c(c(=O)n1C2)COC(=O)[C@]3(O)CC` [7-ETHYL-10-HYDROXYCAMPTOTHECIN] are 2.34e-06 s⁻¹ and 2.26e-05 s⁻¹.
Taken in the same sequence, the figures for `CCc1c2c(nc3ccc(OC(=O)N4CCC(N5CCCCC5)CC4)cc13)-c1cc3c(c(=O)n1C2)COC(=O)[C@]3(O)CC` [IRINOTECAN] were 2.81e-05 s⁻¹ and 3.33e-05 s⁻¹.
